Results published in the supplement of paper PMC10307832.

Columns and labels:
Assay in all cases: relative viability (nuclei count vs DMSO), 5 days (fraction); higher = more cells survive
[1] = compound: C1CSC2=C(C(=O)N1)SC3=C2C=C(C=C3)O [kb NB 142-70] + COc1cc2c(Oc3ccc(NC(=O)C4(C(=O)Nc5ccc(F)cc5)CC4)cc3F)ccnc2cc1OCCCN1CCOCC1 [Foretinib] (partner 0.25 µM)
In short: (§1)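 Relative viability equals treated-well nuclei counts divided by vehicle-well nuclei counts. Counts came from 4× images of lung cancer cell lines grown in 1536-well plates for 5 days after pin-tool dosing on the day after seeding. Dosing used one drug alone or a fixed anchor-drug dose plus five library-drug doses (not always all listed) in √10 steps, and values are medians of duplicate plates.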

[2] = compound: NCC(=O)Nc1ccc(-n2nc(C(F)(F)F)cc2-c2ccc3c(ccc4ccccc43)c2)cc1 + COc1cccc2cc(-c3nc([C@H]4CC[C@H](C(=O)O)CC4)n4ncnc(N)c34)[nH]c12 [OSI-027] (partner 0.5 µM)
In short: as §1

[3] = compound: NCC(=O)Nc1ccc(-n2nc(C(F)(F)F)cc2-c2ccc3c(ccc4ccccc43)c2)cc1 + CS(=O)(=O)N1CCN(Cc2cc3nc(-c4cccc5[nH]ncc45)nc(N4CCOCC4)c3s2)CC1 [Pictilisib] (partner 1 µM)
In short: as §1

[4] = compound: NCC(=O)Nc1ccc(-n2nc(C(F)(F)F)cc2-c2ccc3c(ccc4ccccc43)c2)cc1 + O=C(c1cc(Cc2n[nH]c(=O)c3ccccc23)ccc1F)N1CCN(C(=O)C2CC2)CC1 [Olaparib] (partner 8 µM)
In short: as §1

Row | Cell Line | relative viability ([1]; first compound 0.1 µM) | relative viability ([1]; first compound 1 µM) | relative viability ([1]; first compound 3.162 µM) | relative viability ([2]; first compound 0.02 µM) | relative viability ([2]; first compound 0.06325 µM) | relative viability ([2]; first compound 0.2 µM) | relative viability ([2]; first compound 0.6325 µM) | relative viability ([2]; first compound 2 µM) | relative viability ([3]; first compound 0.02 µM) | relative viability ([3]; first compound 0.06325 µM) | relative viability ([3]; first compound 0.2 µM) | relative viability ([3]; first compound 0.6325 µM) | relative viability ([3]; first compound 2 µM) | relative viability ([4]; first compound 0.02 µM) | relative viability ([4]; first compound 0.06325 µM) | relative viability ([4]; first compound 0.2 µM) | relative viability ([4]; first compound 0.6325 µM) | relative viability ([4]; first compound 2 µM)
1 | NCI-H1993 | 0.739 | 0.762 | 0.744 | 0.545 | 0.493 | 0.541 | 0.483 | 0.542 | 0.759 | 0.773 | 0.738 | 0.838 | 0.861 | 1.01 | 1.01 | 1.06 | 0.915 | 1.08
2 | NCI-H2009 | 1.2 | 1.22 | 0.872 | 0.573 | 0.613 | 0.703 | 0.604 | 0.609 | 0.734 | 0.906 | 0.819 | 0.86 | 0.967 | 0.681 | 0.72 | 0.75 | 0.657 | 0.679
3 | NCI-H2023 | 0.859 | 0.89 | 0.663 | 0.381 | 0.422 | 0.428 | 0.422 | 0.351 | 0.229 | 0.232 | 0.201 | 0.207 | 0.242 | 0.604 | 0.543 | 0.516 | 0.401 | 0.464
4 | NCI-H2085 | 0.964 | 1.06 | 0.513 | 0.688 | 0.908 | 0.654 | 0.691 | 0.802 | 0.483 | 0.443 | 0.436 | 0.42 | 0.469 | 0.853 | 0.802 | 0.801 | 0.829 | 0.812
5 | NCI-H2087 | 1.25 | 1.32 | 0.968 | 0.543 | 0.612 | 0.546 | 0.483 | 0.626 | 0.77 | 0.709 | 0.723 | 0.801 | 0.848 | 0.583 | 0.525 | 0.592 | 0.67 | 0.634
6 | NCI-H2126 | 1.18 | 0.869 | 1.14 | 0.773 | 0.753 | 0.726 | 0.741 | 0.631 | 0.47 | 0.51 | 0.45 | 0.532 | 0.502 | 0.864 | 0.877 | 0.925 | 0.928 | 0.913
7 | NCI-H2170 | 0.996 | 1.07 | 0.953 | 0.67 | 0.678 | 0.711 | 0.824 | 0.735 | 0.233 | 0.325 | 0.319 | 0.328 | 0.323 | 0.689 | 0.638 | 0.62 | 0.673 | 0.605
8 | NCI-H2228 | 0.956 | 0.939 | 0.543 | 0.672 | 0.535 | 0.904 | 0.644 | 0.584 | 0.473 | 0.471 | 0.355 | 0.299 | 0.481 | 0.354 | 0.641 | 0.827 | 0.52 | 0.633
9 | NCI-H2347 | 0.744 | 1.21 | 0.72 | 0.465 | 0.484 | 0.606 | 0.503 | 0.685 | 0.831 | 0.668 | 0.706 | 0.738 | 0.711 | 0.572 | 0.611 | 0.648 | 0.63 | 0.521
10 | NCI-H2405 | 1.05 | 1.05 | 0.776 | 0.634 | 0.646 | 0.699 | 0.642 | 0.689 | 0.415 | 0.494 | 0.499 | 0.375 | 0.481 | 0.873 | 0.89 | 0.863 | 0.857 | 0.919
11 | NCI-H3122 | 0.956 | 0.926 | 0.942 | 1.04 | 0.941 | 0.899 | 0.98 | 0.876 | 0.696 | 0.592 | 0.532 | 0.571 | 0.628 | 0.675 | 0.637 | 0.633 | 0.693 | 0.558
12 | PC-3 [JPC-3] | 0.999 | 1.07 | 1.01 | 0.802 | 0.761 | 0.777 | 0.715 | 0.872 | 0.645 | 0.855 | 0.739 | 0.745 | 0.88 | 1.19 | 1.2 | 1.22 | 1.08 | 1.18
13 | PC-14 | 0.936 | 0.919 | 1.07 | 0.769 | 0.949 | 0.937 | 0.82 | 0.726 | 0.606 | 0.702 | 0.704 | 0.67 | 0.62 | 0.308 | 0.45 | 0.317 | 0.388 | 0.306
14 | RERF-LC-KJ | 0.941 | 0.905 | 0.938 | 0.542 | 0.608 | 0.515 | 0.644 | 0.583 | 0.568 | 0.62 | 0.663 | 0.66 | 0.517 | 0.98 | 0.97 | 1.01 | 0.985 | 0.897
15 | SK-LU-1 | 0.782 | 0.732 | 0.346 | 0.343 | 0.358 | 0.441 | 0.313 | 0.374 | 0.651 | 0.604 | 0.581 | 0.479 | 0.623 | 0.477 | 0.463 | 0.589 | 0.479 | 0.556
16 | SK-MES-1 | 0.875 | 0.939 | 0.985 | 0.677 | 0.575 | 0.622 | 0.616 | 0.646 | 0.382 | 0.313 | 0.334 | 0.355 | 0.42 | 0.773 | 0.727 | 0.84 | 0.775 | 0.706
17 | SW 1573 | 0.892 | 0.797 | 0.605 | 0.593 | 0.658 | 0.759 | 0.487 | 0.551 | 0.513 | 0.545 | 0.493 | 0.514 | 0.486 | 0.554 | 0.506 | 0.531 | 0.479 | 0.404
